Laboratory results from ChEMBL document CHEMBL3826872, “Synthesis of benzimidazole based thiadiazole and carbohydrazide conjugates as glycogen synthase kinase-3β inhibitors with anti-depressant activity” (Bioorg Med Chem Lett, 2016).
The source made the active and inactive calls. The rule behind the calls is not given here.

Key:
[1] = biological target: Glycogen synthase kinase-3 beta (Homo sapiens, UniProt P49841); experiment: Inhibition of recombinant human N-terminal His-tagged GSK-3beta expressed in Escherichia coli using glycogen synthase-2 as substrate and ATP measured after 30 mins by Kinase-Glo luminescent kinase assay
Chain of Glycogen synthase kinase-3 beta (P49841 whole entry): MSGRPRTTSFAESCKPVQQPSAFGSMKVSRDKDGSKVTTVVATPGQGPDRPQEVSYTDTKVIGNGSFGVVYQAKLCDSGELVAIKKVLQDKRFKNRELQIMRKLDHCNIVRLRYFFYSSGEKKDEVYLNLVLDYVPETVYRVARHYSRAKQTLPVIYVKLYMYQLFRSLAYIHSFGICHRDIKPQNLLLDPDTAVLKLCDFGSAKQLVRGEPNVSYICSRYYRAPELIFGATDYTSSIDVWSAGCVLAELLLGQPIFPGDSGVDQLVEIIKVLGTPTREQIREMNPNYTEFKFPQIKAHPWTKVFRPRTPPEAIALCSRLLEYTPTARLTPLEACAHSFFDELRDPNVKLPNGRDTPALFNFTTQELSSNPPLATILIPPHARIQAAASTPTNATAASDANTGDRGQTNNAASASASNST

[2] = test system: Mus musculus; experiment: Antidepressant activity in Swiss albino mouse assessed as reduction in duration of immobility at 50 mg/kg, po dosed 1 hr before test measured after 6 mins by forced swim test relative to control; format: functional, organism-based
[3] = test system: Mus musculus; experiment: Antidepressant activity in Swiss albino mouse assessed as duration of immobility at 50 mg/kg, po dosed 1 hr before test measured after 6 mins by tail suspension test (reference value: 183 sec)

SMILES | IC50 [1] [nM] | Activity [2] | Time [3] [s]
Cc1nc2ccccc2n1CC(=O)NNC(=O)Cc1ccccc1 | 105 |  | 
Cc1nc2ccccc2n1Cc1nnc(Nc2ccc(Br)cc2)s1 | 173 |  | 
Cc1nc2ccccc2n1CC(=O)NNC(=O)C(=O)c1c[nH]c2ccccc12 | 72 | Active | 105
Cc1nc2ccccc2n1CC(=O)NNC(=O)c1ccc[nH]1 | 124 |  | 
Cc1nc2ccccc2n1CC(=O)NNC(=O)Cc1cccc2ccccc12 | 157 |  | 
COc1ccc(CC(=O)NNC(=O)Cn2c(C)nc3ccccc32)cc1 | 379 |  | 
Cc1nc2ccccc2n1Cc1nnc(Nc2ccccc2F)s1 | 76 | Active | 120
Cc1nc2ccccc2n1Cc1nnc(Nc2ccc(F)cc2)s1 | 134 |  | 
Cc1nc2ccccc2n1Cc1nnc(Nc2ccccc2)s1 | 157 |  | 
Cc1nc2ccccc2n1Cc1nnc(NC2CCCCC2)s1 | 406 |  | 
Cc1nc2ccccc2n1CC(=O)NNC(=O)Cc1ccc([N+](=O)[O-])cc1 | 205 |  | 
CCCCNc1nnc(Cn2c(C)nc3ccccc32)s1 | 582 |  | 
Cc1ccccc1CC(=O)NNC(=O)Cn1c(C)nc2ccccc21 | 92 |  | 168
Cc1nc2ccccc2n1CC(=O)NNC(=O)Cc1cc2ccccc2[nH]1 | 135 |  | 
CCOc1ccc(Nc2nnc(Cn3c(C)nc4ccccc43)s2)cc1 | 293 |  | 
Cc1nc2ccccc2n1CC(=O)NNC(=O)CCC(=O)c1ccc(Oc2ccccc2)cc1 | 80 | Active | 135
Cc1nc2ccccc2n1Cc1nnc(Nc2ccc([N+](=O)[O-])cc2)s1 | 107 |  | 174
Cc1nc2ccccc2n1CC(=O)NNC(=O)Cc1ccc(Cl)cc1 | 131 |  | 
Cc1nc2ccccc2n1Cc1nnc(Nc2ccc(Cl)cc2)s1 | 145 |  | 
COc1ccc(Nc2nnc(Cn3c(C)nc4ccccc43)s2)cc1 | 151 |  | 
Cc1nc2ccccc2n1Cc1nnc(Nc2ccccc2Br)s1 | 190 |  | 
CNCCC(Oc1ccc(C(F)(F)F)cc1)c1ccccc1 (centres undefined) [FLUOXETINE] |  |  | 153
COc1ccccc1Nc1nnc(Cn2c(C)nc3ccccc32)s1 | 184 |  | 
Cc1nc2ccccc2n1Cc1nnc(Nc2ccccc2Cl)s1 | 122 |  | 
Cc1nc2ccccc2n1CC(=O)NNC(=O)c1c[nH]c2ccccc12 | 148 |  | 
COc1ccc(C(=O)CCC(=O)NNC(=O)Cn2c(C)nc3ccccc32)cc1 | 561 |  | 
